Tests used:
Experiment in all cases: relative viability (nuclei count vs DMSO), 5 days (fraction); higher = more cells survive
[1] = compound: NC1(c2ccc(-c3nc4ccn5c(=O)[nH]nc5c4cc3-c3ccccc3)cc2)CCC1 [MK-2206] + O=C(c1cc(Cc2n[nH]c(=O)c3ccccc23)ccc1F)N1CCN(C(=O)C2CC2)CC1 [Olaparib] (partner 8 µM)
In short: (§1)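 Lung cancer cell lines, seeded in 1536-well plates, were treated the following day by pin tool with a single drug or with five library-drug doses (not always all listed) in √10 steps on top of a fixed anchor-drug dose. Cells were fixed and nuclei stained in one step after 5 days, and nuclei were counted. Relative viability is the nuclei count for treated wells divided by that for vehicle wells, reported as medians of duplicate plates.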

[2] = compound: NC1(c2ccc(-c3nc4ccn5c(=O)[nH]nc5c4cc3-c3ccccc3)cc2)CCC1 [MK-2206] + Cc1nc(NC(=O)N2CCC[C@H]2C(N)=O)sc1-c1ccnc(C(C)(C)C(F)(F)F)c1 [Alpelisib] (partner 2 µM)
In short: as §1

[3] = compound: NC1(c2ccc(-c3nc4ccn5c(=O)[nH]nc5c4cc3-c3ccccc3)cc2)CCC1 [MK-2206] + CC(=O)c1c(C)c2cnc(Nc3ccc(N4CCNCC4)cn3)nc2n(C2CCCC2)c1=O [Palbociclib] (partner 0.5 µM)
In short: as §1

[4] = compound: CS(=O)(=O)N1CCN(Cc2cc3nc(-c4cccc5[nH]ncc45)nc(N4CCOCC4)c3s2)CC1 [Pictilisib] + COc1cc2c(Oc3ccc(NC(=O)C4(C(=O)Nc5ccc(F)cc5)CC4)cc3F)ccnc2cc1OCCCN1CCOCC1 [Foretinib] (partner 0.25 µM)
In short: as §1

[5] = compound: NC1(c2ccc(-c3nc4ccn5c(=O)[nH]nc5c4cc3-c3ccccc3)cc2)CCC1 [MK-2206] + CC(C)C[C@H](NC(=O)[C@H](Cc1ccccc1)NC(=O)c1cnccn1)B(O)O [Bortezomib] (partner 0.002 µM)
In short: as §1

| Cell Line | relative viability ([1]; first compound 0.01 µM) | relative viability ([1]; first compound 0.03162 µM) | relative viability ([1]; first compound 0.3162 µM) | relative viability ([1]; first compound 1 µM) | relative viability ([2]; first compound 0.01 µM) | relative viability ([2]; first compound 0.03162 µM) | relative viability ([2]; first compound 0.3162 µM) | relative viability ([2]; first compound 1 µM) | relative viability ([3]; first compound 0.01 µM) | relative viability ([3]; first compound 0.03162 µM) | relative viability ([3]; first compound 0.3162 µM) | relative viability ([3]; first compound 1 µM) | relative viability ([4]; first compound 0.02 µM) | relative viability ([4]; first compound 0.06325 µM) | relative viability ([4]; first compound 0.6325 µM) | relative viability ([4]; first compound 2 µM) | relative viability ([5]; first compound 0.01 µM) | relative viability ([5]; first compound 0.03162 µM) | relative viability ([5]; first compound 0.3162 µM) | relative viability ([5]; first compound 1 µM) |
| --- | --- | --- | --- | --- | --- | --- | --- | --- | --- | --- | --- | --- | --- | --- | --- | --- | --- | --- | --- | --- |
| H3255 | 0.539 | 0.58 | 0.538 | 0.518 | 0.694 | 0.748 | 0.53 | 0.6 | 0.313 | 0.302 | 0.283 | 0.288 | 0.813 | 0.884 | 0.571 | 0.494 | 0.718 | 0.977 | 0.718 | 0.564 |
| Calu-6 |  | 0.592 | 0.653 | 0.614 | 1.13 | 1.01 | 0.994 | 0.909 |  |  |  |  | 0.979 | 0.959 | 0.834 | 0.703 | 0.991 | 1.08 | 1.01 | 1.15 |
| SW 900 | 0.79 |  | 0.874 | 0.885 |  |  |  |  | 0.582 |  | 0.532 | 0.423 | 0.93 | 0.815 | 0.774 | 0.533 |  |  |  |  |
| NCI-H650 | 0.4 | 0.362 | 0.383 | 0.391 | 1.09 | 1.15 | 1.11 | 0.983 | 0.292 | 0.328 | 0.311 | 0.309 | 0.984 | 1.09 | 1 | 0.877 | 0.898 | 0.932 | 0.642 | 0.656 |
| NCI-H1650 | 0.72 | 0.864 | 0.969 | 0.957 |  |  |  |  | 0.291 | 0.334 | 0.331 | 0.356 | 1.25 | 1.39 | 1.03 | 0.441 | 0.196 | 0.195 | 0.207 | 0.2 |
| LK-2 | 0.822 | 0.852 | 0.664 | 0.467 | 0.977 | 1.42 | 1.13 | 1.06 | 0.605 | 0.881 | 0.68 | 0.457 | 0.999 | 0.885 | 0.812 | 0.347 |  |  |  |  |
| NCI-H2342 | 0.444 | 0.471 | 0.386 | 0.353 |  |  |  |  | 0.58 | 0.51 | 0.469 | 0.473 | 0.991 | 1.02 | 0.805 | 0.539 |  |  |  |  |
| NCI-H522 | 0.668 | 0.624 | 0.629 | 0.666 |  |  |  |  | 1.04 | 1.12 | 1.05 | 1.09 |  |  |  |  |  |  |  |  |
| EBC-1 | 0.362 | 0.685 | 0.484 | 0.175 | 0.767 | 0.843 | 0.388 | 0.28 |  |  |  |  | 0.122 | 0.0955 | 0.112 | 0.115 | 0.603 | 0.47 | 0.345 | 0.197 |
| ChaGo-K-1 | 0.404 | 0.422 | 0.413 | 0.429 |  |  |  |  | 0.961 | 0.98 | 0.937 | 0.932 | 0.896 | 0.924 | 0.838 | 0.721 | 1.09 | 0.993 | 0.924 | 0.763 |
| IA-LM | 0.869 | 0.791 | 0.993 | 0.781 | 0.809 | 0.869 | 0.578 | 0.544 |  |  |  |  | 1.2 | 1.14 | 0.894 | 0.518 | 0.868 | 0.928 | 0.887 | 0.699 |
| NCI-H1703 | 0.444 | 0.426 | 0.443 | 0.407 | 0.355 | 0.366 | 0.317 | 0.416 |  |  |  |  | 0.34 | 0.372 | 0.321 | 0.27 | 0.338 | 0.28 | 0.316 | 0.223 |
| NCI-H358 | 0.61 | 0.641 | 0.541 | 0.56 | 0.9 | 0.837 | 0.65 | 0.563 | 0.16 | 0.124 | 0.138 | 0.141 | 0.749 | 0.763 | 0.548 | 0.274 |  |  |  |  |
| A549 | 0.389 | 0.439 | 0.333 | 0.125 | 0.841 | 0.791 | 0.534 | 0.529 |  |  |  |  | 1.04 | 0.937 | 0.771 | 0.431 |  |  |  |  |
| HCC-44 | 1.06 | 1 | 1.04 | 0.97 | 0.784 | 0.767 | 0.633 | 0.59 | 0.918 | 0.938 | 0.974 | 0.946 |  |  |  |  | 0.921 | 0.86 | 0.877 | 0.874 |
| NCI-H1623 |  |  |  |  |  |  |  |  |  |  |  |  | 0.773 | 0.792 | 0.639 | 0.348 |  |  |  |  |
| NCI-H596 | 0.745 | 0.698 | 0.732 | 0.688 | 0.518 | 0.623 | 0.401 | 0.473 |  |  |  |  | 0.603 | 0.735 | 0.454 | 0.283 | 1.07 | 1.09 | 0.964 | 0.648 |
| NCI-H1563 |  |  |  |  | 0.934 | 0.764 | 0.695 | 0.656 |  |  |  |  | 0.839 | 0.935 | 0.674 | 0.532 | 0.869 | 0.947 | 0.636 | 0.768 |
| NCI-H1395 | 0.492 | 0.49 | 0.418 | 0.411 | 1.1 | 1.13 | 0.926 | 0.825 | 0.65 | 0.664 | 0.485 | 0.526 | 0.966 | 1.01 | 0.962 | 0.588 |  |  |  |  |
| NCI-H1792 | 0.497 | 0.514 | 0.532 | 0.264 | 0.673 | 0.652 | 0.706 | 0.773 | 0.631 | 0.751 | 0.609 | 0.653 |  |  |  |  | 0.985 | 1 | 0.979 | 0.923 |
| NCI-H1944 | 0.388 | 0.439 | 0.429 | 0.478 | 0.912 | 0.834 | 0.833 | 0.752 | 0.338 | 0.332 | 0.3 | 0.296 | 0.866 | 0.737 | 0.627 | 0.382 |  |  |  |  |

From the supplement of paper PMC10307832
